Reference: patent US20110177180A1, “HERBAL COMPOSITION AND METHOD FOR THE TREATMENT OF VIRAL INFECTION” (PIRAMAL LIFE SCIENCES LIMITED, priority 2008, published 2011)

Legend:
[1] = test system: HSV-2; experiment: CPE inhibition assay - crystal violet staining method; type: cell-based; details: Human alphaherpesvirus 2; 25 μg/mL; Vero cells, HSV-2 100 TCID50, 48 hours
Experimental: The assay was designed to detect agents (in this case, the extracts) acting at any stage of the virus reproductive cycle. The assay was done as reported in Indian J. Med. Res., 2004, 120:24-29.
Vero cells (obtained in step 1 of Example 10) were propagated at a density of 1×10^4 cells/well in 96 well plate and incubated at 37° C. in a CO2 incubator for 24 hours to form a monolayer. […] Appropriate controls were included such as Vero cells alone (cell control), Vero cells with virus (virus control) and Vero cells with virus and the standard compound acyclovir. Acyclovir was checked at the following concentrations (DMSO stock of 20 mg/mL of acyclovir was diluted to 100 μg/mL with DMEM containing 2% FBS): 25 μg/mL, 3.125 μg/mL, 1.56 μg/mL and 0.78 μg/mL and 0.39 μg/mL. After one hour, cells were infected with a multiplicity of infection (moi) of 100 TCID50 of viral dose per well using viral stock obtained in step 2 of Example 10. The infected cells were incubated with maintenance medium (DMEM with 2% FBS) for another 48 hours. […] The staining solution was aspirated out and the plates rinsed using distilled water until all excess stain was washed away. The plates were allowed to dry for 24 hours. CPE was evaluated visually, after staining the plaques, and microscopically and graded according to the percentage of CPE inhibition as compared to controls. […]

[2] = test system: HSV-2; experiment: Mouse vaginal model of HSV-2 infection (Example 15); type: in vivo, BALB/c mice; details: 225mg/kg
Experimental: (§1) Female BALB/c mice of eight weeks age and body weight 18-20 g were used for intravaginal (IVAG) challenge (vaginal inoculation) with the virus (using viral stock of step 2 of example 10). Five days prior to the IVAG challenge, mice were injected subcutaneously (SC) with 2 mg of progesterone (Depo-Provera®; Pfizer, Belgium) in the upper back, using a 29-gauge needle. On the day of challenge, mice were anesthetized with Ketamine (150 mg/kg) and Xylazine (10 mg/kg) by intraperitoneal injection. Mice were inoculated intravaginally with 5×10^3 pfu of the virus using a micropipette in a total volume of 20 μL DMEM. […] Each group had ten animals. Animals were treated three times a day with the treatment intervals of 4 hours for 5 days. 20 μL of the above samples were injected into the vaginal vault using micropipette.
The animals were assessed daily for survival and extravaginal disease signs through 21 days of post inoculation (PI). The severity of the viral disease (extravaginal signs of disease) was quantified using a well-established lesion score scale, also known as five-point scale as follows: • 0: no apparent infection; • 1: few isolated papules and slight redness of extravaginal tissue; • 2: few isolated papules, ulcers, and/or eschar and/or swelling and redness of extravaginal tissue; • 3: multiple fused ulcers/eschars, moderate swelling and redness of extravaginal tissue with extension to surrounding tissue; • 4: ulceration with severe redness and swelling of extravaginal tissue with extension to surrounding tissue, rear leg paralysis; and • 5: severe ulceration of extravaginal tissue with extension to surrounding tissue, weight loss, rear leg paralysis and death.
The assay was performed as mentioned in Example 14 with modifications as mentioned below: • (i) Mice were inoculated intravaginally with 2×10^4 pfu of the virus instead of 5×10^3 pfu in Example 14. • (ii) Evaluation was done by topical application of the formulations (Formulation I, Formulation II and Formulation III) instead of injection of extracts into vaginal vault of the animals in Example 14. • (iii) One more group of animals was studied: “infection control group” in which the mice were inoculated with the virus but were not treated.
Extract of Example 1 (dissolved in PBS) was injected into the vaginal vault using micropipette. Formulation I, Formulation II and Formulation III were applied topically (25 mg) thrice daily for a 5 day period. 25 mg of Formulation IB, IIB or IIIB correspond to 375 mg/kg dose; 25 mg of Formulation IC, IIC or IIIC correspond to 750 mg/kg dose and 25 mg of Formulation ID, IID and IIID correspond to 1500 mg/kg dose evaluated in the animals.

[3] = test system: HSV-2; experiment: Mouse vaginal model of HSV-2 infection (Example 14); type: in vivo, BALB/c mice; details: 75 mg/kg in PBS intravaginal, three times a day for 5 days; 5×10^3 pfu; 21 days
Experimental: The assay was done as reported in Antiviral Research, 2006, 69:77-85.
as §1
The animals were assessed daily for survival and extravaginal disease signs through 21 days of post inoculation (PI). […]

[4] = positive control in evaluation of Formulation I
[5] = positive control in evaluation of Formulation II
[6] = positive control in evaluation of Formulation III
[7] = positive control in evaluation of extract of Example 1

## Nc1nc2c(ncn2COCCO)c(=O)[nH]1 [Acyclovir]
[1]
  inhibition at 25 µg/mL: 76 to 100%
[2]; [4]
  extravaginal disease: None of the mice showed extravaginal disease
  survival rate: 100%
[2]; [5]
  course of extravaginal disease: continued till day 21
  day on which extravaginal disease appeared: 18 days
  survival rate: 100%
[2]; [6]
  extravaginal disease: None of the mice showed extravaginal disease
  survival rate: 100%
[2]; [7]
  extravaginal disease: None of the mice showed extravaginal disease
  survival rate: 100%
[3]
  deaths during the experiment: None of the mice died during the experiment
  signs of extravaginal disease: None of the mice showed signs of extravaginal disease
